Laboratory results published in paper PMC6201930 (PLoS ONE, 2018).
“And” between values parts separate entries of the source, which are not always exact repeats. Equal entries are not always repeated. “Also recorded” adds a separate entry of the source.

Tests used:
[1] = Neuromast toxicity assay (DASPEI staining); settings: zebrafish, zebrafish embryos 5 dpf, neuromasts (hair cells), other: embryos exposed to the drug in 24-well plates, zebrafish embryos 5 dpf
Experimental: (§1) All neuromast cytotoxicity assays were done at Biobide–BBD Biophenix SL (Gipuzkoa, Spain). […] Compounds were tested at 5 doses. After 24 hours of exposure embryos were incubated in DASPEI (2-(4-(dimethylamino)styryl) -N-Ethylpyridinium Iodide) for neuromast staining. Images of each embryo were taken and neuromasts counted. A compound was classified as ototoxic when the number of neuromasts in the treated group was less than that in the untreated control group (One Way ANOVA, multiple comparisons vs. vehicle).

[2] = Pharmacokinetics of aminoglycosides in the rat; settings: sc, 10 mg/kg
Experimental: Test compounds were dissolved in PBS at 1 mg/mL and administered subcutaneously in a volume of 10 mL/kg to deliver a dose of 10 mg/kg. […] At 24 hours, the rat was euthanized and in addition to blood, quadriceps and kidney tissues were collected for subsequent analysis.
Blood was collected into tubes containing dipotassium ethylenediaminetetraacetic acid (K2 EDTA) as the anticoagulant and rotated at room temperature until the blood was centrifuged and the plasma recovered for subsequent analysis by liquid chromatography with tandem mass spectroscopy (LC-MS/MS). Noncompartmental toxicokinetic parameters were determined using Phoenix WinNonLin version 6.1 (Pharsight Corporation, Carey NC).
The concentrations of test compound in plasma, kidney and muscle were quantified by liquid chromatography-tandem mass spectrometry (LC-MS/MS). Briefly, the plasma and tissue homogenate samples were treated with acetonitrile-methanol mixture containing an internal standard that is a close analog of the test compounds. The treated plasma and […] homogenate samples were centrifuged and the supernatant was collected and analyzed using electro-spray LC-MS/MS.

primary mouse myoblasts = assay: Cytotoxicity in myoblasts; settings: read-out: Myoblast CC50; individual determinations (S1 File)
Male Sprague Dawley rats = assay: Fourteen day safety study in rats; assay type: in vivo; settings: for Animals completed study: 6 rats per group; for hematology: numbers of red and white blood cells or platelets vs vehicle: 14 days dosing, all dose groups; for accumulation over time (toxicokinetics): Day 1 and Day 14; for histopathology of liver and bone marrow: end of the 14 day dosing period; for urine lipocalin / urine albumin, clusterin, cystatin C and osteopontin: highest dose groups: G418 20 mg/kg, gentamicin X2 40 mg/kg; for urine albumin, clusterin, cystatin C and osteopontin: normalized to urinary creatinine
Experimental: To evaluate in vivo safety we administered the compounds daily to rats (n = 6 rats per dose group) by subcutaneous injection for 14 days.
Male Sprague Dawley rats were purchased from Charles River Laboratories, where 6 weeks old at time of study initiation. Rats were group-housed (3 rats per box) in solid bottom cages. Food and water were provided ad libitum. Rats were dosed daily by subcutaneous injection. […] Blood was collected for serum chemistry by retro-orbital bleeds on Day 7 and by terminal cardiac puncture on Day 14. For urine collection, rats were housed in metabolic cages for 6 hours. Toxicokinetics was evaluated on Day 1 and Day 14 (S4 Fig). Blood was obtained by retro-orbital bleeding at 0, 0.25, 0.75, 1.5, 4, 7, 24 hours post-dose. Rats were euthanized on Day 14, 24 hours after the last dose. Body weights were measured on Days 3, 6, 9, 12 and 14. Endpoints to evaluate kidney function included serum chemistry (BUN and creatinine; Day 7 and Day 14), urine biomarkers (albumin, clusterin, cystatin C, osteopontin, KIM1, and alpha GST; Day 6 and Day 9), hematology (Day 14) and histopathology. For histopathology, kidney, liver, and bone marrow were evaluated. Samples collected for histopathology were sectioned at 5 μm, stained with hematoxylin and eosin (H&E), and examined by a board certified veterinary pathologist. BUN, creatine and hematology parameters were measured using a HESKA veterinary system (Loveland, CO). Urine samples were assayed using MSD electrochemiluminescent immunoassay. Samples were analyzed in triplicate using a Sector Imager 6000 instrument (MSD, Rockville, Maryland). Kits used were the Rat Kidney Injury Panel 1 (albumin, Kim-1, NGAL/lipocalin-2, osteopontin), the Argutus Acute Kidney Injury Panel (α-GST, GSTYb1, RPA-1) and the Clusterin Test Kit (MSD), according to the manufacturer’s instructions. Urinary biomarker concentrations were normalized to urinary creatinine to account for differences in urine production and flow rates.

in vivo = settings: zebrafish
Experimental: as §1

[3] = 10 mg/kg daily s.c. 14 days, 6 kidneys examined
[4] = 20 mg/kg daily s.c. 14 days, kidneys examined: X2 6, G418 3
[5] = 40 mg/kg daily s.c. 14 days, 6 kidneys examined, listed as X2
[6] = 40 mg/kg daily s.c. 14 days, 6 kidneys examined, listed as gentamicin X2

With `CN[C@@H]1[C@@H](O)[C@@H](O[C@@H]2[C@@H](O)[C@H](O[C@H]3O[C@H](CO)[C@@H](O)[C@H](O)[C@H]3N)[C@@H](N)C[C@H]2N)OC[C@]1(C)O` (stereo in doubt) [Gentamicin X2, gentamicin X2] the CC50 at 24 h ([1]; Neuromast (CC50), 24 hours exposure, maximum of two measurements) was 14 ± 7 µM, the CC50 at 24 h ([1]; Neuromast CC50, AVERAGE (S1 File)) was 13.9 µM and the concentration at 24 h ([2]; kidney) was 7000 ± 1000 ng/g. For the same compound, the AUC ([2]; plasma) was 13000 ng·h/mL, the AUC(0-t) ([2]; plasma) was 13000 ng·h/mL and the Cmax ([2]; plasma) was 5600 ng/mL. For the same compound, the Tmax ([2]; plasma) was 0.5 h, the concentration at 24 h ([2]; plasma) was at most 1 ng/g and the half-life ([2]; plasma) was 2.6 h. For the same compound, the concentration at 24 h ([2]; quadriceps) was about 40 ng/g, the CC50 (primary mouse myoblasts) was 614 µM and 402 µM and 481 µM and 324 µM and 1880 µM and 1300 µM and the Animals completed study (Male Sprague Dawley rats; 10 mg/kg daily s.c. 14 days) was 6. The “Kidneys: Mineralization (number of kidneys)” value (“Kidneys: Mineralization” for short) (Male Sprague Dawley rats; [3]) was 0, the “Kidneys: Pelvic dilation (number of kidneys)” value (from here on “Kidneys: Pelvic dilation”) (Male Sprague Dawley rats; [3]) was 0 and the “Kidneys: Tubular necrosis (number of kidneys)” value (shortened to “Kidneys: Tubular necrosis”) (Male Sprague Dawley rats; [3]) was 2. For the same compound, the Animals completed study (Male Sprague Dawley rats; 20 mg/kg daily s.c. 14 days) was 6, the “Kidneys: Mineralization” value (Male Sprague Dawley rats; [4]) was 0 and the “Kidneys: Pelvic dilation” value (Male Sprague Dawley rats; [4]) was 1. For the same compound, the “Kidneys: Tubular necrosis” value (Male Sprague Dawley rats; [4]) was 2, the “effect on body weight” value (Male Sprague Dawley rats; 20 mg/kg daily s.c., 14 days) was “did not affect body weight” and the Animals completed study (Male Sprague Dawley rats; 40 mg/kg daily s.c. 14 days) was 6. The “Kidneys: Mineralization” value (Male Sprague Dawley rats; 40 mg/kg daily s.c. 14 days, 6 kidneys examined) was 0, the “Kidneys: Pelvic dilation” value (Male Sprague Dawley rats; [5]) was 4 and the “Kidneys: Tubular necrosis” value (Male Sprague Dawley rats; [5]) was 4. For the same compound, the “Kidneys: Pelvic dilation” value (Male Sprague Dawley rats; [6]) was “four of six kidneys”, the “Kidneys: Tubular necrosis” value (Male Sprague Dawley rats; [6]) was “four of six kidneys” and the “effect on body weight” value (Male Sprague Dawley rats; 40 mg/kg daily s.c., 14 days) was “only slightly reduced body weight”. For the same compound, the “hematology: numbers of red and white blood cells or platelets vs vehicle” value (Male Sprague Dawley rats) was “no change; also recorded: no obvious differences across groups”, the “accumulation over time (toxicokinetics)” value (Male Sprague Dawley rats) was “no accumulation” and the tolerability (Male Sprague Dawley rats; all dose levels, 14 days daily s.c.) was “well-tolerated at all dose levels”. For the same compound, the “rats found dead or euthanized” value (Male Sprague Dawley rats; any of the three dose groups (10, 20, 40 mg/kg), 14 days) was “No rats were found dead or euthanized”, the “histopathology of liver and bone marrow” value (Male Sprague Dawley rats) was “No histopathology findings” and the urine lipocalin (Male Sprague Dawley rats) was “not affected”. For the same compound, the “urine albumin, clusterin, cystatin C and osteopontin” value (Male Sprague Dawley rats) was “not increased”.
In the case of `CN[C@@H]1[C@@H](O)[C@@H](O[C@@H]2[C@@H](O)[C@H](O[C@H]3O[C@H]([C@@H](C)O)[C@@H](O)[C@H](O)[C@H]3N)[C@@H](N)C[C@H]2N)OC[C@]1(C)O` [G418, reference compound], the AUC ([2]; in vivo) is reported as 15000 ng·h/mL, the AUC(0-t) ([2]; in vivo) is reported as 15000 ng·h/mL and the Cmax ([2]; in vivo) is reported as 7400 ng/mL. The Tmax ([2]; in vivo) was 0.33 h, the half-life ([2]; in vivo) was 1.5 h and the concentration at 24 h ([2]; in vivo, Kidney levels, 10 mg/kg subcutaneous, 24 hours post-dose, mean ± SD of three rats) was 12000 ± 3000 ng/g. The concentration at 24 h ([2]; in vivo, levels in the quadriceps, 10 mg/kg subcutaneous, 24 hours after dosing) was about 40 ng/g, the concentration at 24 h ([2]; in vivo, plasma levels, 10 mg/kg subcutaneous, 24 hours after dosing, at or below lower limit of quantification) was at most 1 ng/g and the Animals completed study (Male Sprague Dawley rats; 10 mg/kg daily s.c. 14 days) was 6. For the same compound, the “Kidneys: Mineralization” value (Male Sprague Dawley rats; [3]) was 1, the “Kidneys: Pelvic dilation” value (Male Sprague Dawley rats; [3]) was 2 and the “Kidneys: Tubular necrosis” value (Male Sprague Dawley rats; [3]) was 4. For the same compound, the Animals completed study (Male Sprague Dawley rats; 20 mg/kg daily s.c. 14 days) was 3, the “Kidneys: Mineralization” value (Male Sprague Dawley rats; [4]) was 0 and the “rats euthanized or found dead” value (Male Sprague Dawley rats; 20 mg/kg daily s.c., 14 days, 6 rats) was “three rats were either euthanized or found dead”. The “creatinine and blood urea nitrogen (BUN) levels” value (Male Sprague Dawley rats; 20 mg/kg, Days 7 and 14, p<0.05 vs vehicle) was “significantly elevated”, the “hematology: numbers of red and white blood cells or platelets vs vehicle” value (Male Sprague Dawley rats) was “no obvious differences across groups” and the “accumulation over time (toxicokinetics)” value (Male Sprague Dawley rats) was “no accumulation”. For the same compound, the “urine alpha-GST levels” value (Male Sprague Dawley rats; G418 20 mg/kg compared to gentamicin X2 40 mg/kg) was “greatest decrease”, the “histopathology of liver and bone marrow” value (Male Sprague Dawley rats) was “No histopathology findings” and the urine lipocalin (Male Sprague Dawley rats) was “not affected”. The “urine albumin, clusterin, cystatin C and osteopontin” value (Male Sprague Dawley rats) was “increased”, the CC50 (in vivo; Neuromast (CC50), zebrafish embryos 5 dpf, 24 hours exposure, maximum of two measurements) was 2.8 ± 1.2 µM and the CC50 (in vivo; Neuromast CC50, individual determinations (S1 File)) was 1.9 µM.
